Values quoted from earlier work in article PMC10090446, “Population pharmacokinetic analysis and dosing optimization of polymyxin B in critically ill patients” (Frontiers in Pharmacology, 2023).
Where two headings read alike, the source gives them in different places. Positions of bridges follow the written chain, without caps; N, C: chain ends. Non-standard residues stand in square brackets, D forms with d. Residues, ends and D or L forms follow the SMILES beside them. *: point of attachment. X1 = CC[C@H](C)CCCCC(=O)*; Dab = NCC[C@H](N)C(=O)O

Columns and labels:
[1] = used to convert fAUC/MIC target; ref Sandri et al., 2013; cited from earlier work
Procedure: Combined with population PK/PD feature parameters of antibiotics medicines, the PTA of PK/PD target for a dosing regimen at a predetermined minimum inhibitory concentration (MIC) was performed by Monte Carlo simulation. According to the 2019 International Consensus Guidelines ([Tsuji et al., 2019]), the target of fAUC/MIC for polymyxins was around 20, and the unbound fraction was determined to be 0.42 ([Sandri et al., 2013]). Thus AUC/MIC ≥ 50 was set as the efficacy target, as well as the MIC range was set at 0.25–4 mg L^-1 ([Satlin et al., 2020]). Additionally, considering the nephrotoxicity ...

[2] = cited from earlier work
Text: TABLE 5 PPK studies of polymyxin B. | column: Estimation of population parameters || Since small samples were employed in this experiment, the non-parametric population modeling algorithm has theoretical advantages over parametric methods in detecting population PK/PD subgroups and outliers ([Goutelle et al., 2022]), so the non-parametric population modeling approach was chosen for modeling in this study. The values of CL (1.24 L h^-1) and V (16.64 L) (Table 3) in this study were in line with the ranges from previous reports, including the CL range (1.2–4.2 L h^-1) ([Sandri et al., 2013]) (Table 3) and the V range (5.63–34.4 L) (Table 5). However, the CL value was lower than t ...

[3] = Acutely ill patients, n = 52, two-compartment model, ref Miglis et al. (2018)
[4] = Critically ill patients with CVVH, n = 53, two-compartment model, ref Wang et al. (2022)
[5] = Critically ill patients with/without CRRT, n = 53, two-compartment model, ref Luo et al. (2022)
[6] = Critically ill patients, n = 24, two-compartment model, ref Sandri et al. (2013)
[7] = Health Volunteers, n = 20, three-compartment model, ref Liu et al. (2021)
[8] = Patients with MDR-GNB infections, n = 46, two-compartment model, ref Wang et al. (2020)
[9] = Patients with/without ECMO, n = 13, non-compartment model, ref Surovoy et al. (2022)

SMILES: CC[C@H](C)CCCCC(=O)N[C@@H](CCN)C(=O)N[C@H](C(=O)N[C@@H](CCN)C(=O)N[C@H]1CCNC(=O)[C@H]([C@@H](C)O)NC(=O)[C@H](CCN)NC(=O)[C@H](CCN)NC(=O)[C@H](CC(C)C)NC(=O)[C@@H](Cc2ccccc2)NC(=O)[C@H](CCN)NC1=O)[C@@H](C)O [polymyxin B] (X1-[Dab]T[Dab][Dab][Dab][dF]L[Dab][Dab]T; lactam 4-C)
- unbound fraction [1]: 0.42
- CL ([2]; Acutely ill patients, n = 52, 156 samples, two-compartment model, ref Miglis et al. (2018)): 2.63 L/h
- Q [2, 3]: 2.32 L/h
- V1 [2, 3]: 33.8 L
- V2 [2, 3]: 78.2 L
- CL ([2]; Clinical Samples, n = 43, 134 samples, one-compartment model, ref Kubin et al. (2018)): 2.37 L/h
- V ([2]; Clinical Samples, n = 43, one-compartment model, ref Kubin et al. (2018)): 34.4 L
- CLCRRT ([2]; Critically ill patients undergoing CRRT, n = 53 with/without CRRT, two-compartment model, ref Luo et al. (2022)): 1.95 L/h
- CL ([2]; Critically ill patients with CVVH, n = 53, 275 samples, two-compartment model, ref Wang et al. (2022)): 1.95 L/h
- CLCVVH [2, 4]: 4.52 L/h
- Q [2, 4]: 2.28 L/h
- V [2, 4]: 15.0 L
- V2 [2, 4]: 6.54 L
- CLwithoutCRRT ([2]; Critically ill patients with/without CRRT, n = 53, 189 samples, two-compartment model, ref Luo et al. (2022)): 1.5 L/h
- Q [2, 5]: 1.34 L/h
- V [2, 5]: 11.7 L
- V2 [2, 5]: 17.9 L
- CL ([2]; Critically ill patients, n = 24, 100 samples, two-compartment model, ref Sandri et al. (2013)): 1.66 L/h
- Q [2, 6]: 8.76 L/h
- V1 [2, 6]: 5.63 L
- V2 [2, 6]: 19.8 L
- CL [2, 7]: 1.62 L/h
- Q2 [2, 7]: 8.4 L/h
- Q3 [2, 7]: 0.384 L/h
- V [2, 7]: 4.26 L
- V2 [2, 7]: 3.66 L
- V3 [2, 7]: 2.7 L
- CL ([2]; Individuals with severe infections, n = 35, 139 samples, one-compartment model, ref Manchandani et al. (2018)): 2.5 L/h
- V ([2]; Individuals with severe infections, n = 35, one-compartment model, ref Manchandani et al. (2018)): 34.3 L
- CL ([2]; Patients with MDR-GNB infections, n = 46, 331 samples, two-compartment model, ref Wang et al. (2020)): 1.786 L/h
- Q [2, 8]: 13.518 L/h
- V1 [2, 8]: 6.218 L
- V2 [2, 8]: 11.922 L
- CL ([2]; Patients with TDM, n = 32, 112 samples, one-compartment model, ref Yu et al. (2021)): 1.59 L/h
- V ([2]; Patients with TDM, n = 32, one-compartment model, ref Yu et al. (2021)): 20.5 L
- CL [2, 9]: 1.16 L/h
- V [2, 9]: 19.73 L
- CL ([2]; Renal transplant patients, n = 50, 151 samples, one-compartment model, ref Li et al. (2021)): 1.18 L/h
- V ([2]; Renal transplant patients, n = 50, one-compartment model, ref Li et al. (2021)): 12.09 L
